From ChEMBL document CHEMBL4622885, “Rational design, synthesis and biological evaluation of novel multitargeting anti-AD iron chelators with potent MAO-B inhibitory and antioxidant activity” (Bioorg Med Chem, 2020) come the findings set out here.

Broadly, the pKa is the negative logarithm of the acid dissociation constant. Low values mean a stronger acid or weaker base, high ones a weaker acid or stronger base. Broadly, the inhibition is how much of the control response was suppressed. The IC50 is the concentration that inhibits the measured activity by half.

Series [1] is described as follows: Dissociation constant, pKa1 of compound for protonation of the 4-oxo group in 0.1 M KCl incubated for 1 min by UV-pH titration based spectrophotometric analysis. Type of series: physicochemical.
Series [2] is described as follows: Dissociation constant, pKa2 of compound for dissociation of the 3-hydroxyl group in 0.1 M KCl incubated for 1 min by UV-pH titration based spectrophotometric analysis. Format: physicochemical.
Series [3] deals with T1, Amine oxidase [flavin-containing] B (Homo sapiens, UniProt P27338).
T1 sequence (P27338 whole entry): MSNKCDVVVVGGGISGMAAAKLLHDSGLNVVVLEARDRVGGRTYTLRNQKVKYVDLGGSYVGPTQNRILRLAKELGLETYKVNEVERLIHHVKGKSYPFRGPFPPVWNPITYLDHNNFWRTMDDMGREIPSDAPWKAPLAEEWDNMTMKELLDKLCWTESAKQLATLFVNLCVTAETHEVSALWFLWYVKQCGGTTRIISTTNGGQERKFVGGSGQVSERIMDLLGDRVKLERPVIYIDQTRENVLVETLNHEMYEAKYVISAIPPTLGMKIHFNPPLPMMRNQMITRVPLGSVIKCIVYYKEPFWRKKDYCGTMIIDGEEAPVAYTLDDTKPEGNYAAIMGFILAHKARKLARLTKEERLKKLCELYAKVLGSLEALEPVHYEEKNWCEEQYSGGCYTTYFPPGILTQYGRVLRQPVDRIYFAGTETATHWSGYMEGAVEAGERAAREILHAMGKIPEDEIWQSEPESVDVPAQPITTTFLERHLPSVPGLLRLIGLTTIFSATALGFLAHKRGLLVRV
Put plainly: Inhibition of human recombinant MAO-B expressed in baculovirus infected BTI insect cells using kynuramine as substrate at 100 nM incubated for 10 mins followed by substrate addition by fluorimetric analysis relative to control.

For series [4], the target named is T1, Amine oxidase [flavin-containing] B. Nature of the series: Inhibition of human recombinant MAO-B expressed in baculovirus infected BTI insect cells using kynuramine as substrate incubated for 10 mins followed by substrate addition by fluorimetric analysis.
Series [5] in a line: Cytotoxicity against rat PC12 cells assessed as cell viability at 3.13 uM incubated for 24 hrs by MTT assay relative to control. Type of series: cell-based, PC-12. The settings on record: read-out: Activity.
Series [6] is described as follows: Cytotoxicity against rat PC12 cells assessed as cell viability at 6.25 uM incubated for 24 hrs by MTT assay relative to control. Type of series: cell-based, PC-12. The settings on record: read-out: Activity.
The nature of series [7]: Cytotoxicity against rat PC12 cells assessed as cell viability at 12.5 uM incubated for 24 hrs by MTT assay relative to control. Type of series: cell-based, PC-12. The note with it: read-out: Activity. For orientation: Tetrazolium dyes change colour on reduction, which living cells bring about.
Series [8] is described as follows: Cytotoxicity against rat PC12 cells assessed as cell viability at 25 uM incubated for 24 hrs by MTT assay relative to control. Format: cell-based, PC-12. The settings on record: read-out: Activity.
A short description of series [9]: Cytotoxicity against rat PC12 cells assessed as cell viability at 50 uM incubated for 24 hrs by MTT assay relative to control. Type of series: cell-based, PC-12. The note with it: read-out: Activity.
In series [10] the test system is PC-12. Put plainly: Neuroprotective activity against amyloid beta (1 to 42 residues) induced cytotoxicity in rat PC12 cells assessed as cell viability at 10 uM incubated for 24 hrs by MTT assay (reference value: 100%). Type of series: functional. The settings on record: PC-12, 24 h, read-out: Activity.
The subject of series [11] is PC-12. Nature of the series: Neuroprotective activity in amyloid beta (1 to 42 residues) (unknown origin)-induced ROS production in rat PC12 cells assessed as intracellular ROS level at 10 uM pretreated for 36 hrs followed by incubation with DCFH-DA for 10 mins by flow cytometry analysis (reference value: 30.7%). Format: functional. For orientation: Flow cytometry measures light scatter and fluorescence of single cells or particles in a stream.

Series [12] deals with Mus musculus. Nature of the series: Antialzheimer activity in scopolamine-induced impairment in ICR mouse assessed as latency time at 15 mg/kg, ip administered once a day for 10 days pretreated with scopolamine for 30 mins and measured at 5th day of training session by Morris water maze test (reference value: 29.4 +/- 5.77 sec). Type of series: functional.
Series [13] concerns Mus musculus. Nature of the series: Antialzheimer activity in scopolamine-induced impairment in ICR mouse assessed as total distance to platform at 15 mg/kg, ip administered once a day for 10 days pretreated with scopolamine for 30 mins and measured at 5th day of training session by Morris water maze test (reference value: 6.56 +/- 1.27 m). Format: functional.
The test system of series [14] is Mus musculus. Nature of the series: Antialzheimer activity in scopolamine-induced impairment in ICR mouse assessed as total entries at 15 mg/kg, ip administered once a day for 10 days pretreated with scopolamine for 30 mins and measured at 5th day of training session by Morris water maze test (reference value: 2.19 +/- 0.16). Type of series: functional.
Series [15] in a line: Metal chelating activity assessed as iron chelation.
Series [16] is described as follows: Metal chelating activity assessed as Fe3+ complex formation by measuring stability constant for FeI in using pre Fe+3 complexed compound (FeCl3) in 0.1 M KCl :DMSO solution UV-pH titration based spectrophotometric analysis.
The nature of series [17]: Metal chelating activity assessed as Fe3+ complex formation by measuring stability constant for Fe(I)2 in using pre Fe+3 complexed compound (FeCl3) in 0.1 M KCl :DMSO solution UV-pH titration based spectrophotometric analysis.
A short description of series [18]: Metal chelating activity assessed as Fe3+ complex formation by measuring stability constant for Fe(I)3 in using pre Fe+3 complexed compound (FeCl3) in 0.1 M KCl :DMSO solution UV-pH titration based spectrophotometric analysis.

With `COc1ccc2cc(C(=O)NCCn3ccc(=O)c(O)c3C)c(=O)oc2c1`, the pKa at 1 min in series [1] came out at 3.27; in [2], 9.7. The inhibition at 0.1 µM in series [3] came to 65.5%. Further, the IC50 in [4] is 87.9 nM. The viability at 24 h, 3.13 µM in series [5] came to 98.7%. Further, in series [6], the viability at 24 h, 6.25 µM was 99.9%. Besides, in [7], the viability at 24 h, 12.5 µM was determined as 98%. Moreover, the viability at 24 h, 25 µM in series [8] is 90.4%. In series [9], the viability at 24 h, 50 µM came out at 61.7%. In the series with PC-12 [10], the viability at 10 µM is 88.2%. Moreover, the results for the Activity in the series on PC-12 [11], with Mus musculus [13] and in the series with Mus musculus [14] were 8.2%, 3.87 m and 4.63, respectively. In addition, the Time with Mus musculus [12] is 14.94 s. Besides, the pFe3+ in [15] came to 18.9. The log(activity) in [16] stood at 14.9; in series [17] it was 26.2; in series [18], 35.3.
For `Cc1c(O)c(=O)ccn1CCC(=O)Nc1cc2ccccc2oc1=O`, the pKa at 1 min in series [1] was 3.29; in series [2], 9.48. Besides, in [3], the inhibition at 0.1 µM was determined as 43.5%. For the same molecule, the IC50 in series [4] came to 160 nM. Besides, the pFe3+ in series [15] came out at 17.6. For the same molecule, the figures for the log(activity) in series [16], in series [17] and in series [18] were 13.8, 24.8 and 33.3, respectively.
In the case of `CC12CC3CC(C)(C1)CC(N)(C3)C2` [MEMANTINE], in the series on PC-12 [10], the viability at 10 µM worked out at 55.2%. Also, the figures for the Activity in the series with PC-12 [11], in the series with Mus musculus [13] and with Mus musculus [14] were 30.51%, 3.52 m and 5.19, respectively. The Time in the series on Mus musculus [12] turned out to be 13.42 s.
Take `Cc1c(O)c(=O)ccn1CCNC(=O)c1cc2ccc(OCc3cc(F)ccc3F)cc2oc1=O`: the pKa at 1 min in series [1] was 3.2; in series [2], 9.74. Also, the inhibition at 0.1 µM in series [3] is 49.1%. Further, the IC50 in series [4] amounted to 115 nM. The pFe3+ in [15] was 17.2. The log(activity) in series [16] amounted to 14.1; in series [17], 24.9; in series [18] it was 33.6.
Turning to `Cc1c(O)c(=O)ccn1CCNC(=O)c1cc2ccc(OCc3ccccc3[N+](=O)[O-])cc2oc1=O`, the pKa at 1 min in series [1] worked out at 3.24; in [2], 9.74. Moreover, the inhibition at 0.1 µM in series [3] amounted to 50.6%. The IC50 in series [4] is 98.6 nM. Also, the pFe3+ in series [15] is 18.2. The results for the log(activity) in series [16], in series [17] and in [18] were 15.1, 25.9 and 34.6, respectively.
For the molecule `Cc1c(O)c(=O)ccn1CCNC(=O)c1cc2ccc(OCc3ccc(C(F)(F)F)cc3)cc2oc1=O`, the pKa at 1 min in series [1] came out at 3.37; in series [2], 9.83. Besides, in series [3], the inhibition at 0.1 µM was found to be 47.4%. Also, in [4], the IC50 worked out at 119 nM. For the same molecule, the pFe3+ in [15] worked out at 18.1. For the same molecule, the log(activity) in [16] was 14; in series [17], 25.1; in series [18] it was 34.9.
Take `COc1ccc(COc2ccc3cc(C(=O)NCCn4ccc(=O)c(O)c4C)c(=O)oc3c2)cc1`: the results for the pKa at 1 min in series [1] and in series [2] were 3.24 and 9.77, respectively. Further, the inhibition at 0.1 µM in [3] was 47.6%. For the same molecule, the IC50 in series [4] stood at 143 nM. Further, the pFe3+ in [15] came out at 17. For the same molecule, the values for the log(activity) in [16], in series [17] and in series [18] were 14.1, 24.8 and 33.3, respectively.
Turning to `C#CCOc1ccc2cc(C(=O)NCCn3ccc(=O)c(O)c3C)c(=O)oc2c1`, the pKa at 1 min turned out to be 3.32 in [1] and 9.68 in series [2]. Besides, the inhibition at 0.1 µM in [3] came to 20.7%. In addition, the IC50 in [4] is 143 nM. Moreover, the pFe3+ in [15] was 17.9. In addition, the log(activity) turned out to be 14.2 in [16], 25.5 in series [17] and 34.1 in series [18].
Regarding `Cc1c(O)c(=O)ccn1CCNC(=O)c1cc2ccc(OCc3cccc(F)c3)cc2oc1=O`, the pKa at 1 min was 3.32 in series [1] and 9.65 in series [2]. Also, the inhibition at 0.1 µM in series [3] came to 49.1%. In series [4], the IC50 is 108 nM. In series [15], the pFe3+ turned out to be 17.1. For the same molecule, the log(activity) was 14.1 in series [16], 24.7 in series [17] and 33.3 in [18].
For the molecule `Cc1cccc2cc(C(=O)NCCn3ccc(=O)c(O)c3C)c(=O)oc12`, the results for the pKa at 1 min in series [1] and in series [2] were 3.3 and 9.75, respectively. Further, the inhibition at 0.1 µM in series [3] is 44%. Also, in [4], the 50% inhibitory concentration (IC50) was 156 nM. For the same molecule, the pFe3+ in series [15] worked out at 18.7. Moreover, the log(activity) in series [16] was 14.4; in series [17], 25.8; in [18] it was 35.2.
As to `C#CCN(C)Cc1ccccc1` [PARGYLINE], in [3], the inhibition at 0.1 µM came out at 53%. The Time in the series with Mus musculus [12] amounted to 20.85 s. For the same molecule, the Activity in the series on Mus musculus [13] stood at 4.37 m; in the series with Mus musculus [14], 3.81.
As for `COc1cccc2cc(C(=O)NCCn3ccc(=O)c(O)c3C)c(=O)oc12`, the pKa at 1 min amounted to 3.22 in series [1] and 9.55 in series [2]. Besides, the inhibition at 0.1 µM in [3] stood at 46%. In addition, the IC50 in [4] turned out to be 111 nM. In addition, in series [15], the pFe3+ came out at 18.2. In addition, the log(activity) in [16] worked out at 14.2; in series [17], 25.4; in series [18], 34.1.
On to `Nc1c2c(nc3ccccc13)CCCC2` [TACRINE], for which, in the series with Mus musculus [12], the Time came out at 18.03 s. The Activity in the series on Mus musculus [13] is on record as 4.28 m; with Mus musculus [14], 4.63.
`O=C(NCCn1ccc(=O)c(O)c1)c1cc2ccccc2oc1=O`: the pKa at 1 min in [1] worked out at 3; in [2], 8.74. In series [3], the inhibition at 0.1 µM was 46.1%. Further, the IC50 in [4] amounted to 195 nM. Further, in [15], the pFe3+ came out at 18.2. The log(activity) is 12.9 in series [16], 23.4 in series [17] and 31.8 in series [18].
Turning to `Cc1c(O)c(=O)ccn1CCNC(=O)c1cc2ccc(OCc3cccc(Cl)c3)cc2oc1=O`, the results for the pKa at 1 min in series [1] and in series [2] were 3.26 and 9.56, respectively. Also, the inhibition at 0.1 µM in series [3] was 47.4%. Further, the IC50 in series [4] stood at 136 nM. Also, in [15], the pFe3+ came to 18.6. In addition, the figures for the log(activity) in [16], in [17] and in [18] were 14.4, 24.9 and 34.5, respectively.
